Source: patent publication US20080305175A1, “Micro-Container” (AGENCY FOR SCIENCE, TECHNOLOGY AND RESEARCH, priority 2006, published 2008)
Counter-ions that a name gives are not always drawn.

What was measured:
[1] = cited from earlier work
[2] = In vivo release test, DOX concentration in blood after subcutaneous administration; set-up: species or system Male Sprague Dawley rats; conditions: rat, 1 mg DOX in normal saline subcutaneously, ~20 mL blood in a rat
Protocol: Male Sprague Dawley rats (8 weeks, average weight 250 g) were stabilized for 1 week with free access to food and water. Microcontainers loaded with DOX were subcutaneously administered into the rats at a level of 3.7 mg/Kg (10 mg microspheres containing 1 mg DOX were freshly dispersed in 0.5 mL of normal saline solution for each rat). […] The blood samples were separated by centrifugation at 2000 g at 4° C. for 10 min and the obtained plasma samples were then stored at −20° C. prior to analysis. Just before the DOX extraction, the plasma samples were thawed followed by adding 3 ml of 70% ethanol and 30% 0.45 M HCl aqueous solution by volume. The obtained suspensions were mixed for 30 s to form gels. These gels were first stored at 4° C. for 24 hours in dark, and then centrifuged at 10,000 g for 15 min. The supernatants were transferred into glass cuvettes and allowed to warm to room temperature for the determination of DOX concentration by a fluorescence spectrophotometer.

Compound	stability versus pH ([1]; pH of more than 6.5)	DOX concentration level that can be reached in blood [2]	solubility in water ([1]; water)
COc1cccc2c1C(=O)c1c(O)c3c(c(O)c1C2=O)C[C@@](O)(C(=O)CO)C[C@@H]3O[C@H]1C[C@H](N)[C@H](O)[C@H](C)O1 [Doxorubicin, doxorubicin]	unstable		
COc1cccc2c1C(=O)c1c(O)c3c(c(O)c1C2=O)C[C@@](O)(C(=O)CO)C[C@@H]3O[C@H]1C[C@H](N)[C@H](O)[C@H](C)O1 [DOX, Doxorubicin hydrochloride]		50 µg/mL	10000 µg/mL
